From US20250281380A1, “Skincare Formulation for Multi-Modal Reduction of Acetylcholine Concentration and Activity” (JAMRM, LLC, priority 2021, published 2025) come the findings set out here.

SMILES strings stand for the structures.

The test system of this experiment is ACh release, MatTek FT full-thickness model of human skin (human epidermal keratinocytes and human dermal fibroblasts). The experiment is described as follows: MatTek FT tissue model, ACh concentration in the tissue culture media. It counts as cell-based. The source says:
The MatTek FT™ tissue model was used to determine whether treatment with the test formulation would impact ACh release in vitro. The MatTek FT™ tissue model is a three-dimensional, full-thickness model of human skin formed from cultured human epidermal keratinocytes and human dermal fibroblasts. […] The MatTek FT™ tissue model allows for the performance of preclinical studies to evaluate mechanisms of action for skincare products.
A first untreated tissue model served as a control sample and was maintained in a tissue culture media. A second tissue model was maintained in a tissue culture media and treated daily with the test formulation. A third tissue model was maintained in a tissue culture media and exposed to Neostigmine, an acetylcholinesterase inhibitor that prevents the breakdown of ACh in the tissue culture media. A fourth tissue model was maintained in a tissue culture media, treated daily with the test formulation, and exposed to Neostigmine. The amount of ACh created by each of the tissue models was determined by measuring the ACh concentration in the tissue culture media. The results can be seen in FIG. 1.

For `CN(C)C(=O)Oc1cccc([N+](C)(C)C)c1` [Neostigmine], the “accumulation of ACh (ACh concentration in tissue culture media)” value (FIG. 1, tissue model exposed to Neostigmine alone (third tissue model), time not stated) was “about 200 picograms per ml of solution”. Also, where the note is “FIG. 2, 72 hours, neostigmine in the untreated tissue model”, the “ACh concentration at 72 hours, in words, effect of presence of neostigmine” value is “relatively higher concentrations of ACh”.
